SMILES | melting point
COc1cc2c(Nc3ccc(C)c(O)c3)ncnc2cc1OCc1ccncc1.Cl | 249 to 251 °C
COc1cc2c(Nc3ccc(C)c(O)c3)ncnc2cc1OCc1c(C)noc1C.Cl | 252 to 254 °C
COc1cc2c(Nc3ccc(C)c(O)c3)ncnc2cc1OCCCc1ccncc1.Cl | 278 to 282 °C
COc1cc2c(Nc3cc(O)c(C)cc3F)ncnc2cc1OCCCc1ccncc1.Cl | 246 to 248 °C
COc1cc2c(Nc3cc(O)c(C)cc3F)ncnc2cc1OCc1ccncc1.Cl | 257 to 260 °C
COc1cc2c(Nc3cc(O)c(C)cc3F)ncnc2cc1OCc1ccccc1.Cl | 294 to 298 °C
COc1cc2c(Nc3ccc(Cl)cc3F)ncnc2cc1OCc1csc(C)n1.Cl | 220 to 225 °C
COc1cc2c(Nc3cc(O)c(C)cc3F)ncnc2cc1OCCn1ccnc1.Cl | 195 to 220 °C
COc1cc2c(Nc3cc(O)c(C)cc3F)ncnc2cc1OCc1ccc(C#N)cc1.Cl | 265 to 270 °C
COc1cc2c(Nc3ccc(Cl)cc3F)ncnc2cc1OCCc1ccncc1.Cl | 189 to 191 °C
COc1cc2c(Nc3ccc(Cl)cc3F)ncnc2cc1OCc1cccnc1.Cl | 216 to 221 °C
COc1cc2c(Nc3ccc(C)c(O)c3)ncnc2cc1OCc1ccccn1.Cl | 236 to 238 °C
COc1cc2c(Nc3ccc(Cl)cc3F)ncnc2cc1OCCc1nccn1C.Cl | 224 to 229 °C
COc1cc2c(Nc3ccc(Cl)cc3F)ncnc2cc1OCc1ccncn1.Cl | 237 to 239 °C
COc1cc2c(Nc3ccc(Cl)cc3F)ncnc2cc1OCCCN(C)c1ccncc1.Cl | 243 to 248 °C
COc1cc2c(Nc3ccc(Cl)cc3F)ncnc2cc1OCCN(C)c1ncccn1.Cl | 194 to 196 °C
COc1cc2c(Nc3cc(O)c(C)cc3F)ncnc2cc1OCc1ccnc(Cl)c1.Cl | 245 to 250 °C
COc1cc2c(Nc3ccc(C)c(O)c3)ncnc2cc1OCc1nccn1C.Cl | 257 to 260 °C
COc1cc2c(Nc3ccc(Cl)cc3F)ncnc2cc1OCc1cc(Cl)[nH]c(=O)c1.Cl | 271 to 273 °C (dec.)
COc1cc2c(Nc3ccc(C)c(O)c3)ncnc2cc1OCc1csc(C)n1.Cl | 243 to 245 °C
Cl.Oc1cc(Nc2ncnc3cc(OCc4ccccc4)ccc23)c(F)cc1Cl | 253 to 257 °C
COc1cc2c(Nc3cc(O)c(Cl)cc3F)ncnc2cc1OCc1ccsc1.Cl | 277 to 281 °C
COc1cc2c(Nc3ccc(C)c(O)c3)ncnc2cc1OCc1ccsc1.Cl | 246 to 248 °C

SMILES | melting point
COc1cc2c(Nc3ccc(Cl)cc3F)ncnc2cc1OCc1csc(NC(C)=O)n1.Cl | 194 to 202 °C
COc1cc2c(Nc3ccc(C)c(O)c3)ncnc2cc1OCc1csc(NC(C)=O)n1.Cl | 202 to 204 °C
COc1cc2c(Nc3ccc(Cl)cc3F)ncnc2cc1OCc1ccnc(N(C)C)c1.Cl | 290 °C
COc1cc2c(Nc3ccc(C)c(OC(C)=O)c3)ncnc2cc1OCc1cccnc1 [Example 2, 4-(3-acetoxy-4-methylanilino)-6-methoxy-7-(3-pyridylmethoxy)quinazoline] | 113 to 115 °C
COc1cc2c(Nc3ccc(C)c(O)c3)ncnc2cc1OCc1cccnc1 [Example 3, 4-(3-hydroxy-4-methylanilino)-6-methoxy-7-(3-pyridylmethoxy)quinazoline] | 258 to 259 °C
COc1cc2c(Nc3ccc(C)c(O)c3)ncnc2cc1OCc1ccncn1 [Example 5, 4-(3-hydroxy-4-methylanilino)-6-methoxy-7-(pyrimidin-4-ylmethoxy)quinazoline] | 290 to 291 °C
COc1cc2c(Nc3ccc(Cl)cc3F)ncnc2cc1OCCOc1ccncc1 [Example 17, 4-(4-chloro-2-fluoroanilino)-6-methoxy-7-(2-(4-pyridyloxy)ethoxy)quinazoline] | 200 to 202 °C
COc1cc2c(Nc3ccc(Cl)cc3F)ncnc2cc1OCCn1ccccc1=O [Example 18, 4-(4-chloro-2-fluoroanilino)-6-methoxy-7-[2-(2-oxo-1,2-dihydro-1-pyridyl)ethoxy]quinazoline] | 209 to 211 °C
COc1cc2c(Nc3ccc(Cl)cc3F)ncnc2cc1OCCCn1ccc(=O)cc1 [Example 19, 4-(4-chloro-2-fluoroanilino)-6-methoxy-7-[3-(4-oxo-1,4-dihydro-1-pyridyl)propoxy]quinazoline] | > 250 °C
COc1cc2c(Nc3ccc(Cl)cc3F)ncnc2cc1OCc1ccccn1 [Example 39, 4-(4-chloro-2-fluoroanilino)-6-methoxy-7-((2-pyridyl)methoxy)quinazoline] | 215 to 218 °C
COc1cc2c(Oc3ccc(Cl)cc3F)ncnc2cc1OCc1ccncc1 [Example 44, 4-(4-chloro-2-fluorophenoxy)-6-methoxy-7-((4-pyridyl)methoxy)quinazoline] | 197 to 198 °C
COc1cc2c(Nc3ccc(Cl)cc3F)ncnc2cc1OCCN(C)c1cc(C)nc(C)c1 [Example 46, 4-(4-chloro-2-fluoroanilino)-7-(2-(N-(2,6-dimethyl-4-pyridyl)-N-methylamino)ethoxy)-6-methoxyquinazoline] | 208 to 212 °C
COc1cc2c(Nc3ccc(Cl)cc3F)ncnc2cc1OCc1ccnc(Br)c1 [Example 59, 7-((2-bromo-4-pyridyl)methoxy)-4-(4-chloro-2-fluoroanilino)-6-methoxyquinazoline] | 210 to 212 °C
COc1cc2c(Nc3ccc(Cl)cc3F)ncnc2cc1OCc1ccnc(C#N)c1 [Example 60, 4-(4-chloro-2-fluoroanilino)-7-((2-cyano-4-pyridyl)methoxy)-6-methoxyquinazoline] | 209 to 213 °C
COc1cc(COc2cc3ncnc(Nc4ccc(Cl)cc4F)c3cc2OC)ccn1 [Example 62, 4-(4-chloro-2-fluoroanilino)-7-((2-methoxy-4-pyridyl)methoxy)-6-methoxyquinazoline] | 202 to 204 °C
COc1cc2c(Nc3ccc(Cl)cc3F)ncnc2cc1OCc1ccnc(C)c1 [Example 63, 4-(4-chloro-2-fluoroanilino)-6-methoxy-7-((2-methyl-4-pyridyl)methoxy)quinazoline] | 221 to 224 °C
COc1cc2c(Nc3ccc(Cl)cc3F)ncnc2cc1OCCCn1ccccc1=O [Example 65, 4-(4-chloro-2-fluoroanilino)-6-methoxy-7-(3-(2-oxo-1,2-dihydro-1-pyridyl)propoxy)quinazoline] | 216 to 218 °C
COc1cc2c(Nc3ccc(Cl)cc3F)ncnc2cc1OCCCSc1nccn1C [Example 66, 4-(4-chloro-2-fluoroanilino)-6-methoxy-7-(3-(1-methylimidazol-2-ylthio)propoxy)quinazoline] | 199 to 201 °C
COc1cc2c(Nc3ccc(Cl)cc3F)ncnc2cc1OCCCOc1ccncc1 [Example 67, 4-(4-chloro-2-fluoroanilino)-6-methoxy-7-(3-(4-pyridyloxy)propoxy)quinazoline] | 138 to 140 °C
COc1cc2c(Nc3ccc(Cl)cc3F)ncnc2cc1OCCSc1ccncc1 [Example 68, 4-(4-chloro-2-fluoroanilino)-6-methoxy-7-(2-(4-pyridylthio)ethoxy)quinazoline] | 182 to 186 °C
COc1cc2c(Nc3ccc(Cl)cc3F)ncnc2cc1OCCOc1cccnc1 [Example 69, 4-(4-chloro-2-fluoroanilino)-6-methoxy-7-(2-(3-pyridyloxy)ethoxy)quinazoline] | 188 to 190 °C
CCOC(=O)c1cc(COc2cc3ncnc(Nc4ccc(Cl)cc4F)c3cc2OC)ccn1 [Example 93, 4-(4-chloro-2-fluoroanilino)-7-(2-ethoxycarbonylpyrid-4-yl)methoxy-6-methoxyquinazoline] | 212 to 214 °C
